Source: paper PMC5224880, “Discovery and Molecular Basis of a Diverse Set of Polycomb Repressive Complex 2 Inhibitors Recognition by EED” (PLoS ONE, 2017)
pIC50: −log10 of the molar value.

Legend:
Type in all cases: biochemical
NSD2 = biological target: T1, NSD2 (Homo sapiens, UniProt O96028); assay: HMT panel selectivity: NSD2
T1 sequence (O96028 1-1365): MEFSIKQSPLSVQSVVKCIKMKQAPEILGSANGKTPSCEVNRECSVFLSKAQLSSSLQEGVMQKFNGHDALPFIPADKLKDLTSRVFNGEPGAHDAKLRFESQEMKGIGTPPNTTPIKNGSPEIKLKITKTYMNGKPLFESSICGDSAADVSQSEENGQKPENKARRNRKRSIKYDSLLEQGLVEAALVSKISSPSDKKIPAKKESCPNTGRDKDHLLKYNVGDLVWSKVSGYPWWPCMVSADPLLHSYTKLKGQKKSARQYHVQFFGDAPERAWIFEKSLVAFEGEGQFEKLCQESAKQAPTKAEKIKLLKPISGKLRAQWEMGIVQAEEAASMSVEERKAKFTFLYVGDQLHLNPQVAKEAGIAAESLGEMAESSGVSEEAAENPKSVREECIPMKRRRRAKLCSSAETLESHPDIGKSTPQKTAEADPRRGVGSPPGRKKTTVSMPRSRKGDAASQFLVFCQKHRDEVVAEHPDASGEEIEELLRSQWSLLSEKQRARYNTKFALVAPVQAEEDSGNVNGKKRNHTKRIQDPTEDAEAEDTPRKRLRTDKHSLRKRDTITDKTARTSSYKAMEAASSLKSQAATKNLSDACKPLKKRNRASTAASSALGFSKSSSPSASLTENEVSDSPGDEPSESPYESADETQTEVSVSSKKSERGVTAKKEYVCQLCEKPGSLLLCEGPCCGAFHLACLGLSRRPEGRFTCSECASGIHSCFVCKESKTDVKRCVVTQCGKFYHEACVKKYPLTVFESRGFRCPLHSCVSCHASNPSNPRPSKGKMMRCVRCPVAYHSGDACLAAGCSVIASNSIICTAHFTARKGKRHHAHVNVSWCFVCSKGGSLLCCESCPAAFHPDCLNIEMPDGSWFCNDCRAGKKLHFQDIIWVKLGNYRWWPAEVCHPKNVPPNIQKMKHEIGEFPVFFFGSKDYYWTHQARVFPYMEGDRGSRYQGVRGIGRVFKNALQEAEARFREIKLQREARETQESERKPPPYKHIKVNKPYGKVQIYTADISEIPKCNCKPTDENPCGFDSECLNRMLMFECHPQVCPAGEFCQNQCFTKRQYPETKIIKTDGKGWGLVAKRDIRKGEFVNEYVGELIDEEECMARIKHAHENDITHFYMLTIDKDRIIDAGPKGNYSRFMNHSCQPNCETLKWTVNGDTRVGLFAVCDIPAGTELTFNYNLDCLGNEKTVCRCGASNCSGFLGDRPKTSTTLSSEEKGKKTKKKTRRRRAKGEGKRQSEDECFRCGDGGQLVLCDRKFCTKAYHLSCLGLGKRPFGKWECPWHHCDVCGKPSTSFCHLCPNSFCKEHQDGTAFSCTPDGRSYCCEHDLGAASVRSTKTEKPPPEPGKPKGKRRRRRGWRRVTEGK
Description: (§1) Note: for EZH2, EZH2/EED/SUZ12/RBAP48/AEBP2 was used in the assay; for EZH1, EZH1/EED/SUZ12/RBAP48/AEBP2 was used in the assay; for MLL, MLL/WDR5/RBBP5/ASH2L/ was use in the assay. a, H3K27me0 peptide was used as substrate for both EZH2 and EZH1 activity; b, H3K27me1 peptide was used as substrate for both EZH2 and EZH1 activity. All HMT reactions were performed as described previously. ref: Proc Natl Acad Sci U S A. 2012 Dec 26;109(52):21360-5.

Set7/9 = biological target: T2, Set7/9 (Homo sapiens, UniProt Q8WTS6); assay: HMT panel selectivity: Set7/9
T2 sequence (Q8WTS6 1-366): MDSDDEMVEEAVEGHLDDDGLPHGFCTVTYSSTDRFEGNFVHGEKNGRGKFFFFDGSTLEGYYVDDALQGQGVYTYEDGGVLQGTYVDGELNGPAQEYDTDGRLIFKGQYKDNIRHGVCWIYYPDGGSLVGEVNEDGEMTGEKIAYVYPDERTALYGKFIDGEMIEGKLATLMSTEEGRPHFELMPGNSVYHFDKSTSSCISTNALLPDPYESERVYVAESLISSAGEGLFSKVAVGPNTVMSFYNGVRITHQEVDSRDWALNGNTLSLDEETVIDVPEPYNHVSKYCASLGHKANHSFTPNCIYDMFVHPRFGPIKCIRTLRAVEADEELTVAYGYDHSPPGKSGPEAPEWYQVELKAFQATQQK
Description: as §1

ESET = ESET (Homo sapiens, UniProt Q15047); assay: HMT panel selectivity: ESET
Description: as §1

Measured: pIC50

N#Cc1c2c(c3nncn3c1NCc1ccco1)CN(Cc1ccccc1)CC2 [EED162]
< 4.00: NSD2 | Set7/9 | ESET

COc1cccc(CC2CC3Cc4c(cccc4OC)CC3N(C)C2)c1 (stereo not drawn) [EED210]
< 4.00: NSD2 | Set7/9 | ESET

COc1cc(-c2cc3n(c(=N)c2C#N)CCc2cc4c(cc2-3)OCO4)ccc1OC(C)C [EED396]
< 4.00: NSD2 | Set7/9 | ESET

Cc1cc(C)n(-c2cc(N3CCc4ccccc4C3)ccc2[N+](=O)[O-])n1 [EED666]
< 4.00: NSD2 | Set7/9 | ESET

COc1ccccc1CN1CC(c2cn(C)c3ccccc23)C(N(C)C)C1 (stereo not drawn) [EED709]
< 4.00: NSD2 | Set7/9 | ESET
